Experimental data taken from patent US9533965B2, “2-arylbenzofuran-7-formamide compounds, preparation method and use thereof” (SHANGHAI INSTITUTE OF MATERIA MEDICA, CHINESE ACADEMY OF …, priority 2012, dated 2017).

Experiments:
[1] = tested on: Chinese hamster lung fibroblast cell line VC8 (BRCA2−/−); test: In vitro cell proliferation inhibition (MTT), VC8 cells; assay type: cell-based; settings: Cricetulus griseus, V-C8, 72 h, MTT, 72 h, VC8 (BRCA2−/−); read-out: VC8 cell IC50
PARP1 = PARP1 (Homo sapiens, UniProt P09874); test: Enzymatic inhibition on the PARP family members (ELISA), PARP1; assay type: biochemical
Sequence of PARP1 (P09874 whole entry): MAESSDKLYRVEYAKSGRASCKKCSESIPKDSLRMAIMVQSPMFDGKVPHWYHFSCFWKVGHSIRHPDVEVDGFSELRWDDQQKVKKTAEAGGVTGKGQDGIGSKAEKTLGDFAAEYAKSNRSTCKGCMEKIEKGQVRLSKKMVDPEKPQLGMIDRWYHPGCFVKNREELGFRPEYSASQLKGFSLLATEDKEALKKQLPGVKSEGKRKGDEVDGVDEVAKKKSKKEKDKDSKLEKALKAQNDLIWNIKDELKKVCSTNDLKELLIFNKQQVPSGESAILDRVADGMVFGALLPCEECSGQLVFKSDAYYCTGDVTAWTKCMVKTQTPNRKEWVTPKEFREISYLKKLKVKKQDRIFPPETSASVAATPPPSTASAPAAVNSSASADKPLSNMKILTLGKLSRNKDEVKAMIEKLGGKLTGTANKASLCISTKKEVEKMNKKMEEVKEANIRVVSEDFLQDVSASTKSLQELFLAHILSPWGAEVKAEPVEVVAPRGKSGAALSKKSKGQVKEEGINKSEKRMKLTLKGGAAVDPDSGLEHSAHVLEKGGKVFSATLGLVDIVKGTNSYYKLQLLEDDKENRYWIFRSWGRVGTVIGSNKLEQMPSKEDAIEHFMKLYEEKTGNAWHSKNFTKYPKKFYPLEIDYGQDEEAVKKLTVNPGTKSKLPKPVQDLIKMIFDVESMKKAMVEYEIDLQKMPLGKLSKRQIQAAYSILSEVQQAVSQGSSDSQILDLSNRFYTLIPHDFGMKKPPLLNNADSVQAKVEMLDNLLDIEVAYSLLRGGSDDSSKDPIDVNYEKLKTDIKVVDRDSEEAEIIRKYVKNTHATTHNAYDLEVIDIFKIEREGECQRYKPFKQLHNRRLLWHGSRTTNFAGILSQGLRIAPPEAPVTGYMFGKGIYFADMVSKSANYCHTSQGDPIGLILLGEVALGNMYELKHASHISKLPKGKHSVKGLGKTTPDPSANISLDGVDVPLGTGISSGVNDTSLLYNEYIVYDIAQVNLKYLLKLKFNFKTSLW

PARP2 = PARP2 (Homo sapiens, UniProt Q9UGN5); test: Enzymatic inhibition on the PARP family members (ELISA), PARP2; assay type: biochemical; settings: PARP family panel
Sequence of PARP2 (Q9UGN5 whole entry): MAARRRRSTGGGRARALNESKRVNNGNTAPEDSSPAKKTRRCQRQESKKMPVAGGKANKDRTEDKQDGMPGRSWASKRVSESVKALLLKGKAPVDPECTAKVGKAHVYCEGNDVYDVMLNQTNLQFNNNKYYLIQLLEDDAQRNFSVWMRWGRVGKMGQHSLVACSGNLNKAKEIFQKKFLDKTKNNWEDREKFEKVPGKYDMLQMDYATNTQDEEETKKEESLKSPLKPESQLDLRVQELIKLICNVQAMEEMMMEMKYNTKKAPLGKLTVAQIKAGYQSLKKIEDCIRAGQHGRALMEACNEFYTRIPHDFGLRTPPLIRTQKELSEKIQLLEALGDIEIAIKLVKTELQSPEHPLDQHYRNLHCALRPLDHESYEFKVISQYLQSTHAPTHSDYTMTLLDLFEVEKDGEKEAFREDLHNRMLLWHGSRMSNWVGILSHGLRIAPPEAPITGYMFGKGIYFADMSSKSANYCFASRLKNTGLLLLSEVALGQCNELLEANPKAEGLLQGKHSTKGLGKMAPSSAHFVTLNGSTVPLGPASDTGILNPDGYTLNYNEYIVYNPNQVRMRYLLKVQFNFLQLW

PARP3 = target: T1, PARP3 (Homo sapiens, UniProt Q9Y6F1); test: Enzymatic inhibition on the PARP family members (ELISA), PARP3; assay type: biochemical; settings: PARP family panel
T1 sequence (Q9Y6F1 1-533): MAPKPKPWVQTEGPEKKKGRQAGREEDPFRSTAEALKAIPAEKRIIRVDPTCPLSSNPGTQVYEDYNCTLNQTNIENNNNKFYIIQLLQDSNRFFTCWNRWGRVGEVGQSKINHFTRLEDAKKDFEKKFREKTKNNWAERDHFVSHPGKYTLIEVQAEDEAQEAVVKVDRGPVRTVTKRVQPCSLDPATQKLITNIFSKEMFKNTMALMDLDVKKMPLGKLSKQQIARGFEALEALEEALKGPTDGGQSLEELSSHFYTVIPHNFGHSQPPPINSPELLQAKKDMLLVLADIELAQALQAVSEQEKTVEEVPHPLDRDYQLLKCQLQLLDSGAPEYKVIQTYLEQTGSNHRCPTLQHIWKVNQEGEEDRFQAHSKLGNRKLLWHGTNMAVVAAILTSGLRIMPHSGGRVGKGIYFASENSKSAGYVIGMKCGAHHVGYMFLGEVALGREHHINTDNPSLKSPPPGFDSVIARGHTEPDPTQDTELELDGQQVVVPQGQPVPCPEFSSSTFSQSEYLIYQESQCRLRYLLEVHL

TNKS1 = target: T2, TNKS1 (Homo sapiens, UniProt O95271); test: Enzymatic inhibition on the PARP family members (ELISA), TNKS1; assay type: biochemical; settings: PARP family panel, 30° C.
T2 sequence (O95271 1-1327): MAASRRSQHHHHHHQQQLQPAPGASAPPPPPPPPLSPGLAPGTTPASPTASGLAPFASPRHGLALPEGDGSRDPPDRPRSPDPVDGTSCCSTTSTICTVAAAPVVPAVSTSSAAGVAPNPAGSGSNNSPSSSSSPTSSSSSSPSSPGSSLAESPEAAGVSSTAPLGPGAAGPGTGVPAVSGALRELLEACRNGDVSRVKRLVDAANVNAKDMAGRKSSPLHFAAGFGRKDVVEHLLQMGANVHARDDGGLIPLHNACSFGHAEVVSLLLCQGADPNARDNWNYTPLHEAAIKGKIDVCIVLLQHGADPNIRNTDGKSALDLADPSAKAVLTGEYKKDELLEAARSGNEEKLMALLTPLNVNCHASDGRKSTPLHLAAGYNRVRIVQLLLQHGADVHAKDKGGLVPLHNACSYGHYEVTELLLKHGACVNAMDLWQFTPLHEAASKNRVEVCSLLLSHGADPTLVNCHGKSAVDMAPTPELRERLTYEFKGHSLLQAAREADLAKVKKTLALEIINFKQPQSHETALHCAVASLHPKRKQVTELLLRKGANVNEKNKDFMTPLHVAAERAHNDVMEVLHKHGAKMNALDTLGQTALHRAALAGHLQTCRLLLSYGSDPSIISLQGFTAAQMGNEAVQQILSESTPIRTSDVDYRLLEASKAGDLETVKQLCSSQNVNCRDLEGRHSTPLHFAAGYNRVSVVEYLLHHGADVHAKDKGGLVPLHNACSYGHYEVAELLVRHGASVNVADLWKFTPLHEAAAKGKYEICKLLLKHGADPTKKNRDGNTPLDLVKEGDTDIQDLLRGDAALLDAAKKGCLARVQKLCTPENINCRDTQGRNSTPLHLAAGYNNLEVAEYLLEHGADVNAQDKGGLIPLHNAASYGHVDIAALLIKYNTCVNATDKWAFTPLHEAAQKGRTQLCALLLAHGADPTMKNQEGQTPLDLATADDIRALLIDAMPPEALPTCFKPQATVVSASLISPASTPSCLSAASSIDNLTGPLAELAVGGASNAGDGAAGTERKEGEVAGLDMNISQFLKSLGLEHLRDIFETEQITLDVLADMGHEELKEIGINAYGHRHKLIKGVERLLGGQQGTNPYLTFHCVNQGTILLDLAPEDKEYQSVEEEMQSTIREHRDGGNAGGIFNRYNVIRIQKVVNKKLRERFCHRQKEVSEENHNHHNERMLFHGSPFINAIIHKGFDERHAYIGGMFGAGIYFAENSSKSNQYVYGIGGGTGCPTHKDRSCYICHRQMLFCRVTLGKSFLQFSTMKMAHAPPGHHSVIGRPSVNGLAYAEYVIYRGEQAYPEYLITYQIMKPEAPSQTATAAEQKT

Structure (SMILES): CNCc1ccc(-c2cc3cc(F)cc(C(N)=O)c3o2)cc1 [compound 5b, 5-fluoro-2-{4-[(methylamino)methyl]phenyl}benzofuran-7-carboxamide]
- IC50 [1]: 590 ± 150 nM
- inhibitory activity on PARP1/2 relative to other isoenzymes in the family (PARP1; PARP1/2 versus PARP3, TNKS1, TNKS2, PARP6): at least 400 times
- IC50 (PARP1; PARP family panel): 3.2 nM
- IC50 (PARP2): 1.9 nM
- IC50 (PARP3): > 10000 nM
- IC50 (TNKS1): 1600 nM
